The structures appear in SMILES notation. pIC50: −log10 of the molar value. Like-named read-outs stand apart in the source and are kept apart here.

This assay addresses T1, VLA-4 (α4β1) (Homo sapiens, UniProt P05556+P13612).
T1 construct: Jurkat cells express high levels of VLA-4 on their membrane surface; host or cells: Jurkat Clone E6-1
The experiment in a line: VLA-4 (α4β1) binding assay: Jurkat cell adhesion to VCAM-1-coated plates. The format is cell-based. The procedure: Chitosan covalently linked with small molecule α4β1 antagonists having the general structure of formula IA below were assessed for their α4β1 (VLA-4) binding affinity:
The following adhesion assay has been reported previously and used in this invention with minor modification. See U.S. Pat. Nos. 6,229,011 and 6,380,387 both of which are incorporated herein by reference in their entirety. […] Each assay was conducted in a 96-well plate with VCAM-1 used as the counter ligand for the cells (i.e., VCAM-1 was bound to the surface of the wells).
More specifically, 96-well high-binding F96 Maxisorp immuno microtiter plates (Nunc) were coated overnight with 25 ng/well of VCAM-1. […]
To assess VLA-4 inhibition by the VLA-4 targeted chitosans (from the examples), Jurkat cells (expressing high levels of VLA-4) were added to the VCAM-1-coated plates to a final concentration of 2×10^5 cells/well in 96-well plates and allowed to incubate with the test chitosans (from the examples) for 45 minutes at 37° C. After removing unbound cells by gently washing the wells with PBS, the fluorescence signal from the bound cells was read on a Tecan Safire2 microplate reader at 450 nm. Points were plotted and the IC50s of each derivatized chitosan polymer were determined by regression analysis using the linear portion of the concentration-response curve.

T1 sequence (P13612 34-1032): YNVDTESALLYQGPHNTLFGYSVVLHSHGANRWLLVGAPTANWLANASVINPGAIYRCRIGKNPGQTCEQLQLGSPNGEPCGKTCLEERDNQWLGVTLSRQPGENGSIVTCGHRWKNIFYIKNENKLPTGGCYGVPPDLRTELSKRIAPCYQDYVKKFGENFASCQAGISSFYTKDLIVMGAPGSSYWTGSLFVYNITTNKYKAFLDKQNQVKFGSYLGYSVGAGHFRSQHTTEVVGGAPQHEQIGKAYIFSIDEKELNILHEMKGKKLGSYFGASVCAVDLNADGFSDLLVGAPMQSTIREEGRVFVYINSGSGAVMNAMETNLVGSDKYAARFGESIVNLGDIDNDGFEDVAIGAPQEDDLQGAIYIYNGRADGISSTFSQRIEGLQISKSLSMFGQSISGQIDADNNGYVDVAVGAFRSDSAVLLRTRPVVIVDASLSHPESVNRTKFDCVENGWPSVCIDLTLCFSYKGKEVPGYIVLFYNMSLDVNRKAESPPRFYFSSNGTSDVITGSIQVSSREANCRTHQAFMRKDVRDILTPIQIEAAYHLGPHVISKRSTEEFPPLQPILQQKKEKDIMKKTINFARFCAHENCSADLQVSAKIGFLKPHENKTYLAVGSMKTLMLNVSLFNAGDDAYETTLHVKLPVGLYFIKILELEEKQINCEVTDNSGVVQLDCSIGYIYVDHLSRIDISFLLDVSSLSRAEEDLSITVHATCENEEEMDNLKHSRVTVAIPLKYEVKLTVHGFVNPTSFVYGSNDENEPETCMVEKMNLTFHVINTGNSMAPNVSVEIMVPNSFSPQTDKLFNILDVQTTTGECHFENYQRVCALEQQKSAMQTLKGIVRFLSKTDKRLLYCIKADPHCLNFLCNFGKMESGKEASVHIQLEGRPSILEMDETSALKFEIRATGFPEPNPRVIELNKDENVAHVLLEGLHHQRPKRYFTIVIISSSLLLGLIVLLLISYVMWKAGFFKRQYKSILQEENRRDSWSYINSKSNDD
T1 sequence (P05556 21-798): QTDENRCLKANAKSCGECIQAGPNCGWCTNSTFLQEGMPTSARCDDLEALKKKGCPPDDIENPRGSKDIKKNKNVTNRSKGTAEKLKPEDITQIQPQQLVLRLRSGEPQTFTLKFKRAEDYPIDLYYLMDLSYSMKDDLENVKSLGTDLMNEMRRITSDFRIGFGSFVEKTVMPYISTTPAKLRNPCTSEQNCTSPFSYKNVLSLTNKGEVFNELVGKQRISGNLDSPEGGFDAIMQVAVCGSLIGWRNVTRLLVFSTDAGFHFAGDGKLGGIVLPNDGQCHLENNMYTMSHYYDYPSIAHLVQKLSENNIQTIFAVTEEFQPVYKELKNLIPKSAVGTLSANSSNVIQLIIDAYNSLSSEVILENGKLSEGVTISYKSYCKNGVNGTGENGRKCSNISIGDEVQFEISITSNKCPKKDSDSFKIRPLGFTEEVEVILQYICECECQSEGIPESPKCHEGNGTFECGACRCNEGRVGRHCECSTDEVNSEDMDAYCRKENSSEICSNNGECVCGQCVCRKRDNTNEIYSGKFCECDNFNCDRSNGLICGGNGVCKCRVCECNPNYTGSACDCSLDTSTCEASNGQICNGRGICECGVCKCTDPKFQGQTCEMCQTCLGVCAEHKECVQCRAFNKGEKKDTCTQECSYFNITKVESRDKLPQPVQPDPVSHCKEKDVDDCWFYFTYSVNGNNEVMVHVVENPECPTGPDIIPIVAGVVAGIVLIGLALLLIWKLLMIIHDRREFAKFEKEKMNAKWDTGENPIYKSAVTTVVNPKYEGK

For orientation: pIC50 means the negative decadic logarithm of the IC50, by convention in mol/L. Regarding `Cc1cccc(Cl)c1C(=O)NC(Cc1ccc(NC(=O)c2c(Cl)cccc2Cl)cc1)C(=O)O` (centres unmarked) [Control (27), reference compound], the pIC50 (Jurkat cells on VCAM-1-coated plates, Mn2+ activated, 45 minutes at 37° C., Table 1, read-out: Binding IC50) is 8.40 and the pIC50 (control compound in the Jurkat/VCAM-1 adhesion assay, read-out: IC50) was around 7.92.

For the origin of these results see patent US11491178B2, “Chitosan covalently linked with small molecule integrin antagonist for targeted delivery” (Hoffmann-La Roche Inc., priority 2012, dated 2022).
